Assay results taken from patent US11508483B2, “Method of identifying a subgroup of patients suffering from dcSSc which benefits from a treatment with sGC stimulators and sGC activators in a higher degree than a control group” (ADVERIO PHARMA GMBH, priority 2018, dated 2022).

How the values were obtained:
[1] = system: TGFβ-induced skin fibrosis; conditions: mouse, in vivo; cited from earlier work
[2] = system: human dermal fibroblasts of SSc patients; conditions: in vitro; cited from earlier work
[3] = system: patients with dcSSc; assay: RISE-SSc clinical study: lung function, FVC % predicted; type: in vivo, human; conditions: for Difference in LSMeans with regard to FVC % predicted: Riociguat vs placebo, week 52
Excerpt: Pulmonary physiologic measures, particularly FVC, have frequently been used as surrogate endpoints for SSc-ILD and IPF. […] Also in IPF measurable decline in FVC is correlated with mortality. […] The primary efficacy outcome measure was the change in mRSS from baseline to week 52. Key secondary efficacy measure was Combined Response Index for Systemic Sclerosis (CRISS).

[4] = system: patients with dcSSc; assay: RISE-SSc clinical study: Health Assessment Questionnaire disability index (HAQ-DI); type: in vivo, human; conditions: Riociguat vs placebo, week 52
Description: The Health Assessment Questionnaire Disability Index (HAQ-DI) is a well-accepted measure of physical function for various rheumatic diseases, and it is the most widely employed and reported measure for assessing physical function in SSc. As a post hoc analysis in study 16277, the percentage of patients stratified by HAQ-DI categorized change was also performed. Clinically meaningful disease improvement was defined as a decrease in HAQ-DI of more than −0.21 from baseline to week 52; stabilization and/or disease worsening were defined as a change in HAQ-DI less than or equal to −0.21 from baseline to week 52. […] The primary efficacy outcome measure was the change in mRSS from baseline to week 52. Key secondary efficacy measure was Combined Response Index for Systemic Sclerosis (CRISS).

[5] = system: patients with dcSSc; assay: RISE-SSc clinical study: modified Rodnan skin score (mRSS); type: in vivo, human; design: key to Difference in LSMeans with regard to mRSS: mRSS points (skin thickness score, max 51); conditions: for Difference in LSMeans with regard to mRSS: Riociguat vs placebo, week 52; for mean change of mRSS for Riociguat compared to placebo: baseline to week 52
Excerpt: The modified Rodnan skin score (mRSS) is a measure of skin thickness and is used as a primary or secondary outcome measure in clinical trials of systemic sclerosis. The maximum mRSS possible is 51. Standardization of the modified Rodnan skin score for use in clinical trials of systemic sclerosis is described in Khanna, D. et al., 2017b. […] The primary efficacy outcome measure was the change in mRSS from baseline to week 52. Key secondary efficacy measure was Combined Response Index for Systemic Sclerosis (CRISS).

[6] = system: systemic sclerosis patients; conditions: cited from earlier work
[7] = subgroup FVC % predicted at baseline 50-75
[8] = subgroup FVC % predicted at baseline >75
[9] = subgroup anti-RNA polymerase III autoantibodies negative
[10] = subgroup anti-RNA polymerase III autoantibodies positive

Nc1nc(-c2nn(Cc3ccccc3F)c3ncccc23)ncc1C1CC1 [BAY 41-2272]
progression of TGFβ-induced skin fibrosis [1]: prevented the progression | collagen production [2]: reduce collagen production

COC(=O)N(C)c1c(N)nc(-c2nn(Cc3ccccc3F)c3ncccc23)nc1N [Riociguat, methyl 4,6-diamino-2-[1-(2-fluorobenzyl)-1H-pyrazolo[3,4-b]pyridin-3-yl]-5-pyrimidinyl(methyl)carbamate]
change of lung function (FVC % predicted) at week 52 compared to baseline ([3]; Riociguat group, dcSSc patients positive for anti-RNA polymerase III autoantibodies): +1.2 | Difference in LSMeans with regard to FVC % predicted [3, 7]: 9.2 | Difference in LSMeans with regard to FVC % predicted [3, 8]: −1.3 | Difference in LSMeans with regard to FVC % predicted ([3]; subgroup ILD at baseline no): −1.7 | Difference in LSMeans with regard to FVC % predicted ([3]; subgroup ILD at baseline yes): 5.1 | Difference in LSMeans with regard to FVC % predicted [3, 9]: −0.9 | Difference in LSMeans with regard to FVC % predicted [3, 10]: 3.5 | Difference in LSMeans with regard to FVC % predicted ([3]; subgroup hsCRP >10 mg/L): 2.4 | Difference in LSMeans with regard to FVC % predicted ([3]; subgroup hsCRP ≤10 mg/L): −0.5 | Difference in LSMeans with regard to HAQ-DI [4, 7]: −0.22 | Difference in LSMeans with regard to HAQ-DI [4, 8]: −0.07 | Difference in LSMeans with regard to HAQ-DI [4, 9]: 0.02 | Difference in LSMeans with regard to HAQ-DI [4, 10]: −0.44 | Difference in LSMeans with regard to HAQ-DI ([4]; subgroup hsCRP >10 mg/L): −0.13 | Difference in LSMeans with regard to HAQ-DI ([4]; subgroup hsCRP ≤10 mg/L): −0.03 | collagen production [2]: reduce collagen production | Difference in LSMeans with regard to mRSS [5, 7]: −8.0 | Difference in LSMeans with regard to mRSS [5, 8]: −1.7 | Difference in LSMeans with regard to mRSS [5, 9]: 0.3 | Difference in LSMeans with regard to mRSS [5, 10]: −10.5 | Difference in LSMeans with regard to mRSS ([5]; subgroup hsCRP >3 mg/L): −5.8 | Difference in LSMeans with regard to mRSS ([5]; subgroup hsCRP >10 mg/L): −7.5 | Difference in LSMeans with regard to mRSS ([5]; subgroup hsCRP ≤3 mg/L): 1.0 | Difference in LSMeans with regard to mRSS ([5]; subgroup hsCRP ≤10 mg/L): −1.2 | mean change of mRSS for Riociguat compared to placebo ([5]; patients with FVC % predicted at baseline of 50-75): −7.9 units | mean change of mRSS for Riociguat compared to placebo ([5]; patients with hsCRP>10 mg/L): −7.5 units | mean change of mRSS for Riociguat compared to placebo ([5]; patients with hsCRP>3): −5.8 units | mean change of mRSS for Riociguat compared to placebo ([5]; patients ≥65 y of age): −6.7 units

Tocilizumab: monoclonal anti-IL-6 receptor-α antibody approved e.g. for the treatment of patients with rheumatoid arthritis
skin score and FVC in placebo-treated patients who transitioned to tocilizumab ([6]; open-label period): skin score improvement and FVC stabilization | influence of anti-RNA polymerase III autoantibody profile on the effect on change in mRSS or ppFVC ([6]; week 48): little clinically meaningful influence
